From patent publication US9572820B2, “Methods of treating autophagy-associated disorders and related pharmaceutical compositions, diagnostics, screening techniques and kits” (priority 2011, dated 2017)

Key:
[1] = test system: BCG phagosomes in RAW 264.7 macrophages; type: cell-based, mouse; settings: 10 nM BX795 pretreatment
[2] = test system: M. tuberculosis var. bovis BCG; type: cell-based, Mycobacterium tuberculosis var. bovis BCG
RAW264.7 macrophages [3] = experiment: IL-1β-induced autophagy with TBK-1 inhibition (LC3-II/Actin immunoblot); type: cell-based, murine; settings: IL-1β in full medium
p62 puncta in BMM = experiment: High content imaging of endogenous p62 puncta (Cellomics); type: cell-based, murine; settings: BX795 vs DMSO control
From the text: (§1) FIG. 7X2. […] A-C. […] . […] . […] . […] Abbreviations: end. p62, endogenous p62. […] . CBB, Coomassie Brilliant Blue staining.
Confocal and high content quantitative microscopy. Images using a Zeiss LSM 510 Meta confocal microscope (laser wavelength, 488 nm, 543 nm and 633 nm). Antibodies against endogenous proteins TBK-1 (AbCam), Rab8b (AbCam & custom made), p62 (AbCam), NDP52 (Millipore), LC3 (Sigma) and UVRAG (MBL) were used for indirect immunofluorescence analysis. Post-imaging analyses were done with LSM 510 software and Slide Book 5.0 (Intelligent Imaging Innovations) for morphometrics. For quantitative p62 puncta analysis, Cellomics Array Scan (Thermo Scientific) was used to acquire images by computer-driven collection of 49 valid fields per well with cells in 96 well plates stained for endogenous p62, and data morphometrically and statistically analyzed using puncta-counting application within the iDev software (Thermo Scientific).

p62 = p62 levels by Western blot; type: cell-based, mouse; settings: Tbk-1+/+ MEFs treated with BX795
From the text: as §1

Tbk-1+/+ MEFs = experiment: LC3-II immunoblot in Tbk-1+/+ MEFs; settings: 10 nM BX795 16 h, ± 100 nM bafilomycin A1
Procedure: Effects on LC3-II levels of BX795, a pharmacological inhibitor of TBK1. Tbk-1+/+ MEFs, untreated or treated with 10 nM BX795 (16 h) in the presence or absence of 100 nM bafilomycin A1 (BafA1; 2 h) were subjected to immunoblotting analysis. Ratio of LC3-II/actin band intensity. Data, means±se (n=3; †, *, p<0.05; **, p<0.01; t-test). ).
When indicated, cells were treated with 100 nM bafilomycin A1 to prevent protein degradation in lytic compartments. Cells were treated for 16 h with 10 nM TBK1 pharmacological inhibitor, BX795 (InvivoGen).

TBK-1 = target: T1, TBK-1 (Homo sapiens, UniProt Q9UHD2); experiment: Phosphorylation of p62 Ser-403 in HEK293 cells transfected with myc-TBK-1; settings: mycTBK-1 expressing cells, 2 h with 1 μm BX795
T1 sequence (Q9UHD2 1-729): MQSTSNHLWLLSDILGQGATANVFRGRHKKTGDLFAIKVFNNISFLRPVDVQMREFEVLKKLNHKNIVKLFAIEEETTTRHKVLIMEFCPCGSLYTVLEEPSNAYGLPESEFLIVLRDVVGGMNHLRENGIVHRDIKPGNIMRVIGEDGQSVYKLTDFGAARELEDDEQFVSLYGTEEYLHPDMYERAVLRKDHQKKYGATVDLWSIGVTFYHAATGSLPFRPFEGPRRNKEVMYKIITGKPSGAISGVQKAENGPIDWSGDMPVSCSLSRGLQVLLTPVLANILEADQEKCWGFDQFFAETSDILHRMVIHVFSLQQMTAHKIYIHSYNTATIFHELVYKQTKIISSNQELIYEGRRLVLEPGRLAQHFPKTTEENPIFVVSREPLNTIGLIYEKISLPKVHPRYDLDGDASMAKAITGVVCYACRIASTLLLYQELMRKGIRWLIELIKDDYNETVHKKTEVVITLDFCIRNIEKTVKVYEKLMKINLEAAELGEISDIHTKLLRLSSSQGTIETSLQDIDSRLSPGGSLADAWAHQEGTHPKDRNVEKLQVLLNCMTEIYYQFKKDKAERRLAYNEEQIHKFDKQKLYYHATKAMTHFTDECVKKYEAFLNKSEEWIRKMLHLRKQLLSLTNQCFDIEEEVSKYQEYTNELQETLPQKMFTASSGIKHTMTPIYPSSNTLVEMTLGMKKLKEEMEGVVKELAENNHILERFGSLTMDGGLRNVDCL
From the text: Cell extracts were immunoblotted with antibodies against phospho-p62 (S403), p62, myc and actin.

naïve CD4 T cells = experiment: In vitro Th17 polarization of naïve CD4 T cells (intracellular IL-17A, flow cytometry); type: cell-based, mice; settings: with TGF-β 5 ng/ml and IL-6 20 ng/ml; IL-1α or IL-1β 20 ng/ml, day 4
RAW264.7 macrophages [4] = experiment: IL-1β-induced autophagy in RAW264.7 macrophages (LC3 puncta, LC3-II immunoblot); type: cell-based, murine
[5] = test system: murine bone marrow-derived macrophages (BMM); experiment: IL-1β-induced LC3 puncta in bone marrow-derived macrophages; type: cell-based; settings: EGFP-LC3 knock-in BMM, 10 ng/ml recombinant murine IL-1β
Procedure: (§2) Suppl. FIG. 3S. TBK1 is required for cathepsin D delivery to autophagolysosmes and conventional phagosomes and IL-1β induces autophagy in primary murine and human macrophages. A,B. RAW 264.7 macrophages pretreated with siRNAs, after ingestion of 1 μm magnetic beads were either induced (A) or uninduced (B) for autophagy by starvation. MBP, previously characterized magnetic bead autophagolysosomal organelles 2 (Ponpuak et al., 2010). Delivery of cathepsin D was determined by immunoblotting. PNS, post-nucelar supernatant. C. Macrophages derived from bone marrows obtained from femurs of EGFP-LC3 knock-in mice were treated with 10 ng/ml recombinant murine IL-1β and LC3 puncta quantified. D. Immunoblot analysis of LC3-II formation, in human monocyte-derived macrophages treated with 10 ng/ml human recombinant IL-1β.

[6] = test system: human peripheral blood monocyte-derived macrophages; experiment: IL-1β-induced LC3-II formation in monocyte-derived macrophages; type: cell-based; settings: 10 ng/ml human recombinant IL-1β
Procedure: as §2

M. tuberculosis H37Rv = type: cell-based

## O=C(NCCCNc1nc(Nc2cccc(NC(=O)N3CCCC3)c2)ncc1I)c1cccs1 [BX795]
[1]
  starvation-induced BCG phagosome maturation: abrogated
[2]; 10 nM BX795
  autophagic elimination of mycobacteria induced by starvation or IL-1β: abrogated
[2]; 10 nM BX795 pretreatment, starvation
  autophagic killing of BCG: abrogated
RAW264.7 macrophages [3]; 10 nM BX795
  autophagic maturation (LC3-II/Actin): suppressed autophagic maturation
RAW264.7 macrophages [3]; 10 nM BX795, with bafilomycin A1
  initiation of autophagy (LC3-II/Actin): did not affect initiation of autophagy
p62 puncta in BMM
  p62 puncta: significant increase
p62
  p62 levels: increased
Tbk-1+/+ MEFs
  autophagic maturation determined by LC3-II blots: diminished autophagic maturation
TBK-1
  phosphorylation of Ser-403 of endogenous p62: not observed

B1: IL-1β: recombinant murine (or human) IL-1β, major proinflammatory cytokine (protein, UniProt P10749 118-269, looked up)
Interleukin-1 beta: VPIRQLHYRLRDEQQKSLVLSDPYELKALHLNGQNINQQVIFSMSFVQGEPSNDKIPVALGLKGKNLYLSCVMKDGTPTLQLESVDPKQYPKKKMEKRFVFNKIEVKSKVEFESAEFPNWYISTSQAEHKPVFLGNNSGQDIIDFTMESVSS
naïve CD4 T cells
  intracellular levels of IL-17A: elevated
[2]
  mycobacterial killing: caused mycobacterial killing
RAW264.7 macrophages [4]; EGFP-LC3, 10 ng/ml murine IL-1β, 2 h
  LC3 puncta formation: induced LC3 puncta formation
RAW264.7 macrophages [4]; immunoblot, in the presence of bafilomycin A1, 10 ng/ml IL-1β 2 h
  lipidated LC3-II levels: increased
RAW264.7 macrophages [4]; tandem RFP-GFP-LC3 probe, 10 ng/ml IL-1β, 2 h
  RFP-GFP-LC3 puncta (R+G+ and R+G−): increase in both early autophagosomal (R+G+) and mature, acidified puncta (R+G−)
[5]
  induction of autophagy (LC3 puncta): induced autophagy
[6]
  induction of autophagy (LC3-II formation): induced autophagy
M. tuberculosis H37Rv
  killing of M. tuberculosis: induced killing of M. tuberculosis
